Laboratory results: US6825326B2, “PSCA: prostate stem cell antigen and uses thereof” (The Regents of the University of California, priority 1997, dated 2004)

What was measured:
[1] = LD50 experiment to determine the maximum tolerable dose; format: in vivo, mice
Method: An LD50 experiment was performed to determine the maximum tolerable dose of doxorubicin. Doxorubicin (Sigma) and was resuspended in sterile PBS. Doxorubicin was administered by intraperitoneal injection, at the following doses: 50 μg, 25 μg, 12.5 μg, and 6.75 μg. […] At the lower dose ranges, the mice survived for more than 4 weeks. The maximal tolerable dose was 25 μg.

PC3-PSCA tumors = test: Established subcutaneous PC3-PSCA tumors; conditions: day 43; 1G8 1 mg 3×/week 3 weeks; doxorubicin 25 μg once weekly 3 weeks
Method: PC3-PSCA cells were derived by retroviral gene transfer. […] Amphotropic retrovirus was generated by co-transfection of 293T cells with pSR-α containing PSCA and a retroviral helper plasmid containing the amphotropic envelope protein. PC3 cells were subsequently infected with the PSCA containing amphotropic retrovirus, and 48 hours after infection the cells were selected by growth in medium containing the neomycin analogue G418. After 2-3 weeks of selection and expansion, a Western blot was performed to confirm that the PC3-PSCA cells express PSCA protein.
PC3-PSCA cells were grown in T-150 flasks in DMEM+10% FBS prior to the injections. The cells were grown to log phase, harvested, washed, counted, then mixed with Matrigel at a 1:1 dilution, and kept on ice. For injection, male IcR-SCID mice were shaved on their flanks, and each mouse received a single subcutaneous injection of about 1×10^6 cells in a volume of 100 μl on the right flank. The growth of PC3-PSCA tumors was followed by caliper measurements of the growing tumors. The mice were selected for treatment when the tumor reached the size of 100-200 mm^3, at approximately 9 days after the subcutaneous injection. The tumor size was measured at days +9, +15, +23, +29, +36, and +43 post injection.
The mice treated with 1G8, were administered 1 mg of 1G8, three times per week for three consecutive weeks. […]

SMILES: COc1cccc2c1C(=O)c1c(O)c3c(c(O)c1C2=O)C[C@@](O)(C(=O)CO)C[C@@H]3O[C@H]1C[C@H](N)[C@H](O)[C@H](C)O1 [doxorubicin]
- survival at the lower dose ranges ([1]; 25 μg, 12.5 μg, 6.75 μg intraperitoneal): more than 4 weeks
- mortality at the highest dose ([1]; 50 μg intraperitoneal): all the mice died within 2 weeks
- maximal tolerable dose ([1]; intraperitoneal injection): 25 µg
- growth inhibition compared to PBS (PC3-PSCA tumors): 4%
